The source of these data is US20220332758A1, “PEPTIDE-BASED COMPOSITIONS AND METHODS FOR TREATING ALZHEIMER'S DISEASE” (Board of Regents, The Universityof Texas System, priority 2019, published 2022).

The structures appear in SMILES notation.

Data set [1] deals with MC65 cells. Kind of data set: Cell death in MC65 AD cell model under tetracycline withdrawal (WST-1 viability). The format is cell-based, human. The procedure: Cell culture. Cells were cultured in EMEM (SK-N-SH), DMEM (MC65) supplemented with 10% heat-inactivated fetal bovine serum and antibiotics (100 U mL^−1 penicillin, 100 μg mL^−1 streptomycin, and 0.25 μg mL^−1 of amphotericin B; Gibco-Invitrogen). Incubators were maintained at 5% CO2, and 37° C. Medium was replaced every 3-4days. For most experiments, cells were seeded at 100,000 cells mL^−1 in either 6-well or 96 well plates 24 h prior to assay. In most cases, media was replaced with serum free optimem media 24 h prior to assay.
Cell viability. Cell maintained in a clear 96 well plate. On the day of assay, 10 μl of WST-1 reagent (11644807001, Sigma Aldrich) was added to each well and cells incubated in a 37° C. 5% CO2 incubator for 2-4 hours. Absorbance was measured at 450 nm using a gemini series spectrophotometer.
The compounds were tested as follows: in neuroblast MC65 cell culture model with overexpressed C99 fragment of amyloid precursor protein (APP) upon tetracycline withdrawal or with external APP added; and in fruit fly (D. melanogaster) model of AD with overexpressed APP and BACE1. The compounds (1 μM) were mixed with food. Flies were trained to recognize “positive” and “negative” odors (olfaction aversion). The compounds were also treated in hAPP (J20) mice which overexpress a familial variant of APP. The compounds were injected for 14 days (1 mg/kg). […]

The subject of data set [2] is Elav-gs-GAL4>UAS-APP; UAS-BACE1 flies. Kind of data set: Olfaction aversion training in fly AD model. The class given is in vivo, Drosophila melanogaster. The note with it: 1 μM mixed into food, 10 days. The protocol: Olfactory aversion training. Experiments were performed broadly (Malik, B. R. & Hodge, J. J. J Vis Exp, e50107, doi:10.3791/50107 (2014)). Animals were exposed (via an air pump) in alternation to two neutral odors (3-octanol and 4-methylcyclohexanol, prepared as a 1/10 dilution in mineral oil) for 5 minutes under low red-light and a 100V 60 Hz shock was applied during exposure to one of the two odors. The odor associated with the electric shock was alternated between vials. After three training rounds per odor, animals were given one hour to recover then placed in a T-maze (Celexplorer labs) with opposing odors from either side. Flies were allowed two minutes to explore the maze after which the maze sections were sealed and the number of flies in each chamber scored.
The compounds were tested as follows: in neuroblast MC65 cell culture model with overexpressed C99 fragment of amyloid precursor protein (APP) upon tetracycline withdrawal or with external APP added; and in fruit fly (D. melanogaster) model of AD with overexpressed APP and BACE1. The compounds (1 μM) were mixed with food. Flies were trained to recognize “positive” and “negative” odors (olfaction aversion). The compounds were also treated in hAPP (J20) mice which overexpress a familial variant of APP. The compounds were injected for 14 days (1 mg/kg). Novel Object Recognition assay was used to test learning and memory.

The subject of data set [3] is elav-GS-Gal4>UAS-APP, UAS-Bace1 flies. Briefly: Spontaneous activity in fly AD model. The format is in vivo, Drosophila melanogaster. The note with it: 1 μM in food. The procedure: Spontaneous activity and circadian rhythm. Spontaneous activity was monitored using a Trikinetic activity monitor, in which vials containing 20-25 flies were secured and activity recorded in a humidified 24° C. incubator with 12:12-hour light:dark cycles as described herein. Flies were allowed to acclimate for 8 hours prior to data collection. Activity was averaged for each twelve-hour cycle and normalized per fly.

The target of data set [4] is 20S proteasome (Homo sapiens, UniProt P25787+P60900). Kind of data set: AFM imaging of gate conformers of 20S proteasomes. Details: purified from erythrocytes; purchased Boston Biochem, Inc. or Enzo Life Sciences, Inc; host or cells: human erythrocytes. The note with it: 1 μM. The procedure:
Atomic Force Microscopy (AFM) Imaging. Single molecules of 20S proteasomes were imaged in tapping (oscillating) mode in liquid, with a scanner E of the Multimode Nanoscope IIIa (Bruker Inc., Santa Barbara, Calif.). The proteasomes were electrostatically attached to a muscovite mica substrate, covered with imaging buffer (5 mM Tris/HCl, pH 7) and scanned using cantilevers with the spring constant of 0.35 N/m from the SNL (Sharp Nitride Lever) probes (Bruker Inc., Santa Barbara, Calif.) tuned to 9-10 kHz. The amplitude set-point in the range of 1.5-2.0V, drive voltage of 300-500 mV and 3.05 Hz scanning rate were used. Scans of 1 μm^2 fields (512×512 pixels) were collected in height-mode. The images of fields typically contained several dozens of top-view (“standing”) 20S proteasome particles. The gate status was deduced from a profile of raw height values of pixels measured by a probe scanning across the single proteasome particles. In short, under the employed scanning conditions the proteasome a face with the central gate area was completely rendered by a six-pixel (11-12 nm) scan-line fragment. Numerical values of the height of particles of raw (after standard flattening) images were collected with a practical vertical resolution reaching 1 Å. […] The “events” of gate opening/closing were analysed for scans of distinct particles as well as multiple scans of the same particles.

Data set [5] deals with T1, proteasome activity in CNS of non-transgenic mice (Mus musculus, UniProt P49722+Q9QUM9).
T1 construct: from tissue; host or cells: CNS of non-transgenic mice
Briefly: Proteasome activity in CNS of mice after IP injection. The class given is in vivo. The protocol: Plate-based proteasome activity assay. Samples were homogenized by pestle in 100 μL chilled proteasome buffer (50 mM Tris, 5 mM MgCl2, 1 mM DTT, pH 7.4, vortexed and then centrifuged at 21,000 g at 4° C. for 15 minutes and supernatant transferred. Protein content was recorded by Bradford assay and samples diluted as appropriate. In a black 96-well plate, 10 μL of samples were added to 80 μL proteasome buffer supplemented with addition of 5 mM ATP for measuring 26S proteasome activity. Finally, 50 μM Suc-LLVY-AMC fluorogenic substrate in 10 μL proteasome buffer was added to each well to measure chymotrypsin-like activity. The plate was incubated at 37° C. in a SpectrumMax M2 plate reader for four hours with fluorescence measured every 10 minutes with 355 nm excitation and reading 460 nm emission. Total proteasome activity per sample was defined as the gradient of the linear trendline over this incubation period.

In the case of `N=C(N)NCCCC(NC(=O)CN)C(=O)NC(CCCCN)C(=O)NC(CCCCN)C(=O)NC(CCCNC(=N)N)C(=O)NC(CCCNC(=N)N)C(=O)NC(CCC(N)=O)C(=O)N1Cc2ccccc2C[C@H]1C(=O)N1C(C(=O)NC(CCCNC(N)N)C(=O)N2CCCC2C(=O)NC(CO)C(=O)O)CC2CCCCC21` (stereo partly drawn) [(5), GRKKRRQ-TOD-RPS], the “survival of neuroblasts overexpressing APP” value in data set [1] (1 μM) is listed as “improves survival”. Also, the “cell death under tetracycline withdrawal” value in data set [1] (MC65, WST1 viability assay) was “significantly reduces cell death”. For the same compound, in data set [2], the “olfaction aversion training performance” value is “Improved performance in olfaction aversion training”. The spontaneous activity entry in data set [3] is listed as “increased spontaneous activity”. The intermediate conformers in data set [4] worked out at 27%. Besides, in data set [5] (24 hours after intraperitoneal injection), the “proteasome activity in the central nervous system” value is recorded as “significantly enhances proteasome activity”. Moreover, the blood-brain-barrier penetration result in data set [5] (mice, IP injection) is on record as “stably penetrates the blood-brain-barrier”.
`NCCCCC(N)C(=O)NC(CCCCN)C(=O)NC(CCCCN)C(=O)Nc1cc(NC(=O)C(CCCCN)NC(=O)C(CCCCN)NC(=O)C(N)CCCCN)cc(C(=O)NC(CCCCN)C(=O)NC(CCCCN)C(=O)NC(CCCCN)C(=O)O)c1` (stereo not drawn) [(8)]: the “olfaction aversion training performance” value in data set [2] was “Improved performance in olfaction aversion training”. In data set [3], the spontaneous activity result is “increased spontaneous activity”.
